Measured values published in patent US9429582B2, “Tyrosine-phosphorylated WBP2, a novel cancer target and biomarker” (National University of Singapore, priority 2010, dated 2016).

How the values were obtained:
TCF/β-catenin signaling = assay: TCF reporter activity / β-catenin recruitment in Y192-231E-expressing MCF7; type: cell-based, human; details: preliminary study, data not shown
Experimental: The Dual-Luciferase TM reporter assay system (Promega) was used for sequential measurement of Firefly and Renilla luciferase activities according to manufacturer's instructions. Quantification of luciferase activities were carried out using a luminometer (Sirius).
The Dual-Luciferase TM reporter assay system (Promega) was used for sequential measurement of Firefly and Renilla luciferase activities according to manufacturer's instructions. Quantification of luciferase activities were carried out using a luminometer (Sirius, Berthold-DS Inc, Germany). Briefly, transfected cells in 24-well plate were rinsed once with ice-cold PBS and lysed in 1× Passive Lysis Buffer (PLB) for 15 min at RT. The crude lysate was first incubated with Luciferase Assay Substrate (LAR II) to measure the firefly luciferase activity, followed by incubation with Stop and Glo Substrate to measure the Renilla luciferase activity.
Next, we examined the relative contributions of ERα and Wnt pathway to WBP2-mediated cellular proliferation. […] Even at higher doses of up to 2000 nM, retardation of proliferation by Tamoxifen of Y192-231E-expressing cells remains unremarkable. FH535 is a recently identified small-molecule inhibitor of TCF/β-catenin signaling (31). […] No synergistic effect could be observed when Tamoxifen and FH535 were administered in combination.

WBP2 = assay: Immunoblot of WBP2 expression in drug-treated WBP2-Y192-231E mutant-expressing MCF7; type: cell-based, human; details: Y192-231E-expressing MCF7; 15 μM FH535; day 2-4 post-treatment
Experimental: A: Whole cell lysates from vector, WBP2-WT, WBP2-Y192-231E mutant and WBP2-Y192-231F mutant expressing MCF7 or Y192-231E mutant expressing MCF7 with WBP2 knockdown were used for IB analysis with antibodies indicated. B: Vector, WBP2-WT, WBP2-Y192-231E mutant or WBP2-Y192-231F mutant-expressing MCF7 were co-transfected with TOPFlash (top panel) or ERE-Luciferase (bottom panel) reporter construct. For cells co-transfected ERE-luciferase, they were either left alone or stimulated with 50 ng/ml Wnt3a ligand for 16 hrs. TCF/ERα luciferase activities in various conditions were then assayed. **P<0.01, ***P<0.001, Student's t-test (2-tailed). […] Cell numbers were measured. […]
Whole cell lysates from vector, WBP2-WT, WBP2-Y192-231E mutant and WBP2-Y192-231F mutant expressing MCF7 (A) or Y192-231E mutant expressing MCF7 with WBP2 knockdown (B) were used for IB analysis with antibodies indicated. Their expression levels were quantified in three independent experiments and the averages were presented relative to actin. […] TCF(C)/ER[…](D) luciferase activities in various conditions were then assayed and analyzed in relative to untreated vector control. **P<0.01, ***P<0.001, Student's t-test (2-tailed). […] Cell numbers were measured daily and compared in relative to vehicle treated vector-expressing cells on Day 0. […] Cell numbers were measured and compared in relative to vehicle-treated cells. […]

`Cc1cc([N+](=O)[O-])ccc1NS(=O)(=O)c1cc(Cl)ccc1Cl` [FH535] was tested, and the TCF activity reduced (TCF/β-catenin signaling; 24-hr post-treatment with 15 μM FH535 in Y192-231E-expressing MCF7) was 50%, the “recruitment of β-catenin” value (TCF/β-catenin signaling) was “inhibits” and the WBP2 expression (WBP2) was “without affecting”.
